Assay results reported in patent publication US20090053306A1, “Pharmaceutical Compositions of a 5-HT2A Serotonin Receptor Modulator Useful for the Treatment of Disorders Related Thereto” (priority 2005, published 2009).
≈ marks a conversion by molar mass, not a printed value. Where two headings read alike, the source gives them in different places.

Key:
[1] = biological target: 5-HT2A serotonin receptor (Homo sapiens, UniProt P28223); conditions: cited from earlier work
[2] = Plasma pharmacokinetics in healthy male and female volunteers following oral administration of a capsule formulated dose; assay type: in vivo; conditions: both sexes, human, capsule with Cremephor RH40
Protocol: Plasma pharmacokinetics for 1-[3-(4-bromo-2-methyl-2H-pyrazol-3-yl)-4-methoxy-phenyl]-3-(2,4-difluoro-phenyl)-urea were determined in healthy male and female volunteers following oral administration of a capsule formulated dose of 1-[3-(4-bromo-2-methyl-2H-pyrazol-3-yl)-4-methoxy-phenyl]-3-(2,4-difluoro-phenyl)-urea and Cremephor RH40.

[3] = Solubility determination in selected excipients (HPLC); assay type: physicochemical; conditions: thermodynamic from solid
Protocol: The vial contents were mixed for 30 seconds using a VWR mini vortexter followed by sonication (Branson 1510) for 1 minutes. Vials were placed into a constant temperature bath (i.e., about 25° C.) and allowed to equilibrate for no less than 12 hours. The resulting suspensions were transferred to eppendorf tubes each equipped with a 0.2 μm nylon filter (Costar 8168) and were centrifuged for 10 minutes at 14,000 rpms. The supernatant from each eppendorf tube was collected and diluted with HPLC grade acetonitrile or methonal with appropriate dilution factor. Each solution was analyzed by an HPLC method.
As an example, the following HPLC assay was used to determine the aqueous solubility of 1-[3-(4-bromo-2-methyl-2H-pyrazol-3-yl)-4-methoxy-phenyl]-3-(2,4-difluoro-phenyl)-urea:
HPLC System: Waters 2795; Stationary phase: Xterra® column, MS C18, 3.5 μm, 4.6×50 mm; Mobile phase: Line A: 100% De-ionized-Millipore water; Line B: 1.0% NH4OH; Line C: 100% HPLC grade Acetonitrile; Gradient: A: 80% to 0% in 8 minute; B: 10% constant in 8 minute; C: 10% to 90% in 8 minute; Flow rate: 1.50 mL/min; Column temperature: 40° C.±5° C.; Sample temperature: 25° C.±5° C.
Photodiode Array Detector: Waters 2996 with UV lamp: 3D data collection; Start wavelength: 210 nm; end wavelength: 320 nm.
Processing wavelength: 220 nm.
Quantification was effected by comparison of the HPLC peak area for each test solution with the peak area taken from a standard plot of concentration versus peak area for standards of known concentration. As is conventional, the standard concentrations for 1-[3-(4-bromo-2-methyl-2H-pyrazol-3-yl)-4-methoxy-phenyl]-3-(2,4-difluoro-phenyl)-urea were selected to fall within a linear range of concentration versus absorbance for the UV detector employed. The standard concentration for 1-[3-(4-bromo-2-methyl-2H-pyrazol-3-yl)-4-methoxy-phenyl]-3-(2,4-difluoro-phenyl)-urea was diluted in serial fashion to obtain a calibration curve. Dilution was effected by adding the acetonitrile from mobile phase. Each saturated equilibrium solution for 1-[3-(4-bromo-2-methyl-2H-pyrazol-3-yl)-4-methoxy-phenyl]-3-(2,4-difluoro-phenyl)-urea obtained after filtering the test vial solutions was diluted with acetonitrile or methonal with appropriate dilution factor to reach the linear range of the standard plot.

diabetic rats = conditions: cited from earlier work
5-HT2A = 5-HT2A (Homo sapiens, UniProt P28223); conditions: cited from earlier work
JC virus = conditions: cited from earlier work
[4] = glaucoma patients; cited from earlier work
[5] = patients, 24 months of treatment; cited from earlier work

5-HT2A, sequence (P28223 whole entry): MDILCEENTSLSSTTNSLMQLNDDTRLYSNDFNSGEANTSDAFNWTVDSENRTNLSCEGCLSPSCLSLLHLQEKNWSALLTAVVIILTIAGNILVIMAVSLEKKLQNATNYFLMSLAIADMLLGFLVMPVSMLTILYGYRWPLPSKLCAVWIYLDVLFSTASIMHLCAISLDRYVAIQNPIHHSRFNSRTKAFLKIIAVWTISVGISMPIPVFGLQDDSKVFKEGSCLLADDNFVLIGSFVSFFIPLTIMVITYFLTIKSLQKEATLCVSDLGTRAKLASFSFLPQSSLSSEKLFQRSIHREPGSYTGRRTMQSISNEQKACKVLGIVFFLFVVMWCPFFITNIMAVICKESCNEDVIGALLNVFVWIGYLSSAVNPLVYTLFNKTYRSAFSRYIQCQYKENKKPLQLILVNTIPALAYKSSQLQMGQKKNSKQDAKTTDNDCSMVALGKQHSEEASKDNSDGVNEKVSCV
5-HT2A serotonin receptor, sequence (P28223 whole entry): as above

COc1ccc(NC(=O)Nc2ccc(F)cc2F)cc1-c1c(Br)cnn1C [1-[3-(4-bromo-2-methyl-2H-pyrazol-3-yl)-4-methoxy-phenyl]-3-(2,4-difluoro-phenyl)-urea]
effectiveness as a modulator of the 5-HT2A serotonin receptor [1]: especially effective as a modulator of the 5-HT2A serotonin receptor
AUC(0-inf) ([2]; single oral dose 10 mg): 51 ng·h/mL
Cmax ([2]; single oral dose 10 mg): 18 ng/mL
Tmax ([2]; single oral dose 10 mg): 1.2 h
AUC(0-inf) ([2]; single oral dose 20 mg): 181 ng·h/mL
Cmax ([2]; single oral dose 20 mg): 58 ng/mL
Tmax ([2]; single oral dose 20 mg): 1.2 h
AUC(0-inf) ([2]; single oral dose 40 mg): 395 ng·h/mL
Cmax ([2]; single oral dose 40 mg): 113 ng/mL
Tmax ([2]; single oral dose 40 mg): 1.5 h
AUC(0-inf) ([2]; single oral dose 80 mg): 612 ng·h/mL
Cmax ([2]; single oral dose 80 mg): 118 ng/mL
Tmax ([2]; single oral dose 80 mg): 1.2 h
AUC(0-inf) ([2]; single oral dose 160 mg): 739 ng·h/mL
Cmax ([2]; single oral dose 160 mg): 125 ng/mL
Tmax ([2]; single oral dose 160 mg): 1.5 h
solubility ([3]; 0.01 N HCl, 25 °C, pH 2, simulated gastric fluid, 0.01 N HCl (about pH 2), read-out: aqueous solubility): ≤ 0.01 mg/mL
solubility ([3]; 0.01 N HCl, 25 °C, pH 2, simulated gastric fluid, at 25° C. in 0.01 N HCl (pH 2), read-out: Solubility): < 0.01 mg/mL
solubility ([3]; 25 mM phosphate buffer, 25 °C, pH 7, aqueous buffer, at 25° C. in 25 mM Phosphate buffer (pH 7), read-out: Solubility): < 0.01 mg/mL
solubility ([3]; 0.05% Tween 80 & 0.5% Methocel, 25 °C, aqueous with cosolvent or surfactant or cyclodextrin, at 25° C. in 0.05% Tween 80 & 0.5% Methocel, read-out: Solubility): < 0.01 mg/mL
solubility ([3]; 1% Tween 80, 25 °C, aqueous with cosolvent or surfactant or cyclodextrin, at 25° C. in 1% Tween 80, read-out: Solubility): 0.4 mg/mL (≈ 0.915 mM)
solubility ([3]; 5% Gum Arabic, 25 °C, aqueous with cosolvent or surfactant or cyclodextrin, at 25° C. in 5% Gum Arabic, read-out: Solubility): < 0.01 mg/mL
solubility ([3]; 50% Captisol, 25 °C, aqueous with cosolvent or surfactant or cyclodextrin, at 25° C. in 50% Captisol, read-out: Solubility): 0.4 mg/mL (≈ 0.915 mM)
solubility ([3]; Cremophor RH 40, 25 °C, organic solvent or mixture, at 25° C. in Cremophor RH 40, read-out: Solubility): 196 mg/mL (≈ 448 mM)
solubility ([3]; Labrafil M 1944 CS, 25 °C, oil or lipid, at 25° C. in Labrafil M 1944 CS, read-out: Solubility): 29.9 mg/mL (≈ 68.4 mM)
solubility ([3]; Labrafil M 2125 CS, 25 °C, oil or lipid, at 25° C. in Labrafil M 2125 CS, read-out: Solubility): 32.7 mg/mL (≈ 74.8 mM)
solubility ([3]; Labrasol, 25 °C, oil or lipid, at 25° C. in Labrasol, read-out: Solubility): 348 mg/mL (≈ 796 mM)
solubility ([3]; PEG 300, 25 °C, organic solvent or mixture, at 25° C. in PEG 300, no suspension observed, read-out: Solubility): > 150 mg/mL
solubility ([3]; PEG 400, 25 °C, organic solvent or mixture, at 25° C. in PEG 400, read-out: Solubility): 377 mg/mL (≈ 861 mM)
solubility ([3]; PEG 600, 25 °C, organic solvent or mixture, at 25° C. in PEG 600, no suspension observed, read-out: Solubility): > 325 mg/mL
solubility ([3]; Softigen 767, 25 °C, oil or lipid, at 25° C. in Softigen 767, no suspension observed, read-out: Solubility): > 200 mg/mL
solubility ([3]; Transcutol P, 25 °C, organic solvent or mixture, at 25° C. in Transcutol P, no suspension observed, read-out: Solubility): > 200 mg/mL
solubility ([3]; Tween 20, 25 °C, organic solvent or mixture, at 25° C. in Tween 20, no suspension observed, read-out: Solubility): > 160 mg/mL
solubility ([3]; Tween 80, 25 °C, organic solvent or mixture, at 25° C. in Tween 80, read-out: Solubility): 320 mg/mL (≈ 732 mM)
solubility ([3]; deionized water, 25 °C, water, at 25° C. in Deionized water, read-out: Solubility): < 0.01 mg/mL
solubility ([3]; deionized water, 25 °C, water, deionized water, read-out: aqueous solubility): ≤ 0.01 mg/mL
solubility ([3]; phosphate buffer, 25 °C, pH 7, aqueous buffer, phosphate buffer (about pH 7), read-out: aqueous solubility): ≤ 0.01 mg/mL
solubility ([3]; saline (0.9% NaCl solution), 25 °C, saline or isotonic, at 25° C. in Saline (0.9% NaCl solution), read-out: Solubility): < 0.01 mg/mL
solubility ([3]; saline (about 0.9% NaCl solution), 25 °C, saline or isotonic, saline (about 0.9% NaCl solution), read-out: aqueous solubility): ≤ 0.01 mg/mL

O=CN1CCC(C(=O)NCCN2CCC(=C3c4ccccc4C=Cc4ccccc43)CC2)CC1 [AT-1015]
14.9% reduction in saphenous sensory conduction velocity (diabetic rats): completely reversed
44.7% reduction in sciatic endoneurial blood flow (diabetic rats): completely reversed

O=C(c1ccc(F)cc1)C1CCN(CCn2c(=O)[nH]c3ccccc3c2=O)CC1 [ketanserin]
inverse agonist activity at 5-HT2A (5-HT2A): have inverse agonist activity
JC virus infection of human glial cells (JC virus): inhibited JC virus infection

Cc1nc2sccn2c(=O)c1CCN1CCC(=C(c2ccc(F)cc2)c2ccc(F)cc2)CC1 [ritanserin]
inverse agonist activity at 5-HT2A (5-HT2A): have inverse agonist activity
14.9% reduction in saphenous sensory conduction velocity (diabetic rats): completely reversed
44.7% reduction in sciatic endoneurial blood flow (diabetic rats): completely reversed
JC virus infection of human glial cells (JC virus): inhibited JC virus infection

COc1cccc(CCc2ccccc2OCC(CN(C)C)OC(=O)CCC(=O)O)c1 (stereo not drawn) [sarpogrelate]
IOP [4]: significantly lower IOP
14.9% reduction in saphenous sensory conduction velocity (diabetic rats): completely reversed
44.7% reduction in sciatic endoneurial blood flow (diabetic rats): completely reversed
urinary albumin excretion level [5]: significantly reduced
